Test results as given in PubChem BioAssay AID248 (DTP/NCI, 2004).
Toxic doses and inconclusive results are not listed. Cut-off read from the data, not from the text of the source: active = T/C of 150% or more; inactive = T/C below 125%.

Tested on: L1210 leukemia ip in BDF1 mice, survival T/C
Experiment: NCI In Vivo Anticancer Drug Screen. Data for tumor model L1210 Leukemia (intraperitoneal) in B6D2F1 (BDF1) mice
Conditions: endpoint: mean survival time, higher = longer survival
How it was run: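 Each compound was tested against a transplantable tumor grown in mice. The endpoint was survival, with treated animals benchmarked against vehicle controls as a simple ratio.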

[1] = dose: 100.0 mg/kg/injection, schedule: Q01DX009 (ip), vehicle: Klucel (hydroxypropylcellulose) (HPC)
[2] = dose: 100.0 mg/kg/injection, schedule: Q04DX003 (ip), vehicle: Klucel (hydroxypropylcellulose) (HPC)
[3] = dose: 200.0 mg/kg/injection, schedule: Q04DX003 (ip), vehicle: Klucel (hydroxypropylcellulose) (HPC)
[4] = dose: 400.0 mg/kg/injection, schedule: Q04DX003 (ip), vehicle: Klucel (hydroxypropylcellulose) (HPC)
[5] = dose: 100.0 mg/kg/injection, schedule: Q01DX001 (ip), vehicle: saline
[6] = dose: 200.0 mg/kg/injection, schedule: Q01DX001 (ip), vehicle: saline
[7] = dose: 400.0 mg/kg/injection, schedule: Q01DX001 (ip), vehicle: saline
[8] = dose: 100.0 mg/kg/injection, schedule: Q04DX003 (ip), vehicle: saline
[9] = dose: 200.0 mg/kg/injection, schedule: Q04DX003 (ip), vehicle: saline
[10] = dose: 400.0 mg/kg/injection, schedule: Q04DX003 (ip), vehicle: saline
[11] = dose: 3.12 mg/kg/injection, schedule: Q01DX009 (ip), vehicle: saline
[12] = dose: 6.25 mg/kg/injection, schedule: Q01DX009 (ip), vehicle: saline
[13] = dose: 12.5 mg/kg/injection, schedule: Q01DX009 (ip), vehicle: saline
[14] = dose: 75.0 mg/kg/injection, schedule: Q01DX001 (ip), vehicle: other
[15] = dose: 150.0 mg/kg/injection, schedule: Q01DX001 (ip), vehicle: other

Measured: T/C

CC1(C)N=C(N)N=C(N)N1c1cccc(OCc2cccc(N)c2)c1
inactive: dose: 5.0 mg/kg/injection, schedule: Q01DX001 (ip), vehicle: saline 98 % of control | dose: 10.0 mg/kg/injection, schedule: Q01DX001 (ip), vehicle: saline 101 % of control | dose: 20.0 mg/kg/injection, schedule: Q01DX001 (ip), vehicle: saline 96 % of control | dose: 40.0 mg/kg/injection, schedule: Q01DX001 (ip), vehicle: saline 93 % of control | dose: 80.0 mg/kg/injection, schedule: Q01DX001 (ip), vehicle: saline 113 % of control

CCCCCCCCCCCCCCCCCCOC(=O)Cc1ccc(N(CCCl)CCCl)cc1
inactive: [1] 105 % of control | [2] 100 % of control | dose: 200.0 mg/kg/injection, schedule: Q01DX009 (ip), vehicle: Klucel (hydroxypropylcellulose) (HPC) 110 % of control | [3] 109 % of control | dose: 400.0 mg/kg/injection, schedule: Q01DX009 (ip), vehicle: Klucel (hydroxypropylcellulose) (HPC) 115 % of control | [4] 105 % of control

O=C(O)c1ccc(NC(c2ccccc2)c2ccc3cccnc3c2O)cc1 (stereo not given)
inactive: [5] 86 % of control | [6] 89 % of control | [7] 86 % of control

CCC1OC(=O)CC(O)C(C)C(OC2OC(C)CC(N(C)C)C2O)C(CC=O)CC(C)C(=O)/C=C/C2(C)OC2C1C (stereo not given)
inactive: dose: 75.0 mg/kg/injection, schedule: Q01DX009 (ip), vehicle: saline with Tween-80 93 % of control | dose: 150.0 mg/kg/injection, schedule: Q01DX009 (ip), vehicle: saline with Tween-80 102 % of control

O=C(Oc1ccccc1)Oc1c(Cl)cc([N+](=O)[O-])cc1[N+](=O)[O-]
inactive: [2] 100 % of control | [3] 100 % of control | [4] 93 % of control

CN(N=O)C(=O)NCC1OC(n2cnc3c(N)ncnc32)C(O)C1O (stereo not given)
inactive: dose: 9.0 mg/kg/injection, schedule: Q01DX001 (ip), vehicle: saline with Tween-80 95 % of control | dose: 13.0 mg/kg/injection, schedule: Q01DX001 (ip), vehicle: saline with Tween-80 98 % of control | dose: 26.0 mg/kg/injection, schedule: Q01DX001 (ip), vehicle: saline with Tween-80 96 % of control | dose: 40.0 mg/kg/injection, schedule: Q01DX001 (ip), vehicle: saline with Tween-80 96 % of control | dose: 60.0 mg/kg/injection, schedule: Q01DX001 (ip), vehicle: saline with Tween-80 98 % of control | dose: 90.0 mg/kg/injection, schedule: Q01DX001 (ip), vehicle: saline with Tween-80 103 % of control | dose: 133.0 mg/kg/injection, schedule: Q01DX001 (ip), vehicle: saline with Tween-80 101 % of control | dose: 200.0 mg/kg/injection, schedule: Q01DX001 (ip), vehicle: saline with Tween-80 106 % of control

Cc1ccc(N(CCO)CCO)cc1
inactive: dose: 50.0 mg/kg/injection, schedule: Q01DX001 (ip), vehicle: saline 93 % of control | [5] 102 % of control

O=C(/C=C/C(=O)NCc1ccccc1)NCc1ccccc1
inactive: [8] 100 % of control | [9] 103 % of control | [10] 100 % of control

O=C(CBr)Nc1nccs1
inactive: [11] 98 % of control | [12] 93 % of control | [13] 104 % of control | dose: 12.5 mg/kg/injection, schedule: Q04DX003 (ip), vehicle: saline 98 % of control | dose: 25.0 mg/kg/injection, schedule: Q04DX003 (ip), vehicle: saline 94 % of control

O=C1Cc2cc3c(cc2C=C2CCCN12)OCO3
inactive: dose: 50.0 mg/kg/injection, schedule: Q01DX001 (ip), vehicle: Klucel (hydroxypropylcellulose) (HPC) 103 % of control | dose: 100.0 mg/kg/injection, schedule: Q01DX001 (ip), vehicle: Klucel (hydroxypropylcellulose) (HPC) 97 % of control | dose: 200.0 mg/kg/injection, schedule: Q01DX001 (ip), vehicle: Klucel (hydroxypropylcellulose) (HPC) 101 % of control

NC(=O)c1c2n(c3ncnc(N)c13)C1OC(CO)C(O)C1S2 (stereo not given)
inactive: dose: 25.0 mg/kg/injection, schedule: Q01DX009 (ip), vehicle: water 91 % of control | dose: 50.0 mg/kg/injection, schedule: Q01DX009 (ip), vehicle: water 91 % of control

COc1nc2ccccc2n1C1OC(CO)C(O)C1O (stereo not given)
inactive: [5] 97 % of control | [6] 100 % of control | [7] 105 % of control

Cc1nc(N)sc1N=Nc1cc(Br)ccc1Br
inactive: dose: 75.0 mg/kg/injection, schedule: Q01DX001 (ip), vehicle: saline 97 % of control | dose: 150.0 mg/kg/injection, schedule: Q01DX001 (ip), vehicle: saline 114 % of control

COC(=O)COC1=NCC([N+](=O)[O-])CC1 (stereo not given)
inactive: [2] 100 % of control | [3] 107 % of control | [4] 102 % of control

OCC1OC(n2cnc3c([Se]Cc4ccccc4)ncnc32)C(O)C1O (stereo not given)
inactive: dose: 1.56 mg/kg/injection, schedule: Q01DX005 (ip), vehicle: saline 97 % of control | dose: 3.12 mg/kg/injection, schedule: Q01DX005 (ip), vehicle: saline 94 % of control | [11] 103 % of control | dose: 6.25 mg/kg/injection, schedule: Q01DX005 (ip), vehicle: saline 97 % of control | [12] 95 % of control | dose: 12.5 mg/kg/injection, schedule: Q01DX005 (ip), vehicle: saline 110 % of control | [13] 105 % of control

CC(C)C(=O)NN
inactive: [8] 98 % of control | [9] 101 % of control | [10] 101 % of control

C=CCONC(=O)Oc1ccccc1
inactive: [14] 106 % of control | [15] 97 % of control

Clc1cc(Cl)cc(N=Nc2ccccc2)c1
inactive: [2] 102 % of control | [3] 103 % of control | [4] 103 % of control

CCCCCCCC(=O)Oc1ccc(C)cc1
inactive: dose: 100.0 mg/kg/injection, schedule: Q01DX Z (ip), vehicle: carboxymethylcellulose (CMC) 103 % of control | dose: 150.0 mg/kg/injection, schedule: Q01DX Z (ip), vehicle: carboxymethylcellulose (CMC) 106 % of control | dose: 225.0 mg/kg/injection, schedule: Q01DX Z (ip), vehicle: carboxymethylcellulose (CMC) 97 % of control

CN(C)CCc1ccccc1OC1CCCC1
inactive: [14] 101 % of control | [15] 102 % of control | dose: 300.0 mg/kg/injection, schedule: Q01DX001 (ip), vehicle: other 101 % of control

Nc1nc(N)nc(Nc2ccc([As]=O)cc2)n1 (stereo not given)
inactive: dose: 25.0 mg/kg/injection, schedule: Q01DX009 (ip), vehicle: Klucel (hydroxypropylcellulose) (HPC) 112 % of control | dose: 50.0 mg/kg/injection, schedule: Q01DX009 (ip), vehicle: Klucel (hydroxypropylcellulose) (HPC) 117 % of control | [1] 102 % of control

CC(N)C(=O)NC(C(=O)O)C(C)O (stereo not given)
inactive: dose: 25.0 mg/kg/injection, schedule: Q04DX002 (ip), vehicle: saline 98 % of control | dose: 50.0 mg/kg/injection, schedule: Q04DX002 (ip), vehicle: saline 121 % of control | dose: 100.0 mg/kg/injection, schedule: Q04DX002 (ip), vehicle: saline 113 % of control

Cc1ccc(C(C)C)cc1NC(=O)c1cccc([N+](=O)[O-])c1
inactive: dose: 100.0 mg/kg/injection, schedule: Q01DX009 (ip), vehicle: other 98 % of control | dose: 200.0 mg/kg/injection, schedule: Q01DX009 (ip), vehicle: other 88 % of control | dose: 400.0 mg/kg/injection, schedule: Q01DX009 (ip), vehicle: other 98 % of control
